Measurements as given in patent US9981956B2, “Small molecule inhibitors of fibrosis” (THE CALIFORNIA INSTITUTE FOR BIOMEDICAL RESEARCH, priority 2013, dated 2018).
Where two headings read alike, the source gives them in different places.

Experiments:
Cyp3A4 = Cyp3A4 (Homo sapiens, UniProt P08684); experiment: Cyp reversible inhibition assay (human liver microsomes)
Procedure: The purpose of this assay was to determine reversible inhibition of Cyp enzyme with a given compound using a substrate probe turnover as the surrogate for inhibition. This was done with human liver microsomes rather an isolated enzyme to account for metabolites of parent drug leading to a potential drug-drug interaction through Cyp inhibition. The substrate turnover (for example conversion of midazolam to hydroxyl midazolam) was monitored by LCMSMS (Q1/Q2=342.2/203.2). Test compounds were tested in a 7-point dose response curve starting from 50 μM to 50 nM (˜3-fold dilution series).
The detailed protocol was as follows: • Prepared test compounds and standard inhibitors working solution (100×) • Pulled microsomes out of the −80° C. freezer to thaw on ice, labeled with the date and put back to freezer immediately after using. • Added 20 μL of the substrate solutions to corresponding wells. • Added 20 μL PB to Blank wells. • Added 2 μL of the test compounds and positive control working solution to corresponding wells. • Added 2 μL MeOH to No Inhibitor wells and Blank wells. • Prepared HLM working solution. • Added 158 μL of the HLM working solution to all wells of incubation plate. • Pre-warmed the plate for about 10 min at 37° C. water bath. • Prepared NADPH cofactor solution. • Added 20 μL NADPH cofactor to all incubation wells. • Mixed and incubated for 10 minutes at 37° C. water bath. • At the time point, terminated the reaction by adding 400 μL cold stop solution (200 ng/mL Tolbutamide in ACN). • Centrifuged the samples at 4000 rpm for 20 minutes to precipitate protein. • Transferred 200 μL supernatant to 200 μL HPLC water and shook for 10 min. • Analyzed samples by LC/MS/MS.

[1] = tested on: Candida albicans (ATCC 10231); experiment: Candida albicans anti-fungal MIC potency determination; assay type: cell-based
Procedure: The wild type Candida albicans (ATCC 10231) was used and Fluconazole, amphotericin B, itraconazole and terbinafine were purchased from Sigma and used as positive controls.
The highest assay concentration for all test compounds and fluconazole was 100 μM. Fluconazole was also tested at the highest concentration of 64 μg/ml, and amphotercin B and terbinafine at 16 and 64 μg/ml. The test compounds were in DMSO stock solution at a concentration of 10 mM. Two stock solutions in DMSO were prepared for fluconazole at 10 mM and 6.4 mg/ml. Amphotericin B and terbinafine stock solutions in DMSO were prepared at 1.6 and 6.4 mg/ml.
Serial dilution of 100× stock solutions: 4 μl of stock solution was added into 196 μl of RPMI1640 (MOPS buffered and free of HEPES and sodium bicarbonate) in the first well of a row of a sterile u-bottom 96-well plate. The rest of the wells was filled with 100 μl RPMI1640. The 2-fold serial dilution was made sequentially by transferring 100 μl solution to the next well and mixing by pipetting, until 11th well. The extra 100 μl in 11th well was discarded. Therefore, the compound wells contained 100 μl of 2× of testing concentrations of drugs in RPMI1640. The 12th well was filled with only 100 μl RPMI1640.
C. albicans 3147 (ATCC 10231) glycerol frozen stock was streaked on Sabouraud dextrose agar (SDA). The plate was incubated at 35° C. ambient atmosphere for 20 h. Single colonies were suspended into sterile saline until turbidity reached 0.1 (1-5×10^6 CFU/ml) using a Siemens turbidity meter. This suspension was diluted 50× in RPMI1640 in a 15 ml conical, and then it was further diluted 20× in RPMI1640 in a 50 ml conical. This gave 1-5×10^3 CFU/ml suspension and was used as inoculum. The cell density in inoculum was plate-counted to be 4.94×10^3 CFU/ml.
The plates were incubated at 35° C. in ambient atmosphere. The photos were taken at 24 h and 48 h. The MIC end points for fluconazole and amphotericin B were read according to the M27-A3 protocol (Reference Method for Broth Dilution Antifungal Susceptibility Testing of Yeasts; Approved Standard-Third Edition, M27-A3 standard published Jan. 1, 2008 by Clinical and Laboratory Standards Institute). The MIC for compounds for test cmpds and terbinafine (not mentioned in M27-A3 protcol) were read as if they were azoles.

[2] = Mouse pharmacokinetic (PK) studies, snapshot format; assay type: in vivo; details: plasma, po, 20 mg/kg; for AUC(0-t): read-out: AUC0-24 h
Procedure: Compounds with suitable in vitro ADME properties were progressed to in vivo PK studies. A snapshot format in mice was used to quickly assess the potential for lead candidates to be orally bioavailable. The snapshot format involved a single dose (typically 20 mg/kg) given orally in a standard vehicle (5% PEG/DMSO in water for example). Compounds were infused directly into MS analysis to determine unique MRM (multiple reaction monitoring) signal that is concentration dependent in either ESI positive or negative modes. HPLC analysis using various solvent gradients was performed from organic and aqueous solution to ensure good peak shape of desired Q1/Q2 masses. Formulations included 45% Cyclodextrin in water (as is used clinically for Itraconazole). Other formulations that may used are solutol, Eudragit, MC/Tween, etc. Standard curves were generated using plasma spiked with compound at various concentrations (10 ng/mL to 2000 ng/mL) to determine linear range of Q1/Q2 mass signal to compound concentration using female mouse heparinized plasma. Mice were dosed orally with compound, plasma samples collected by retro-orbital bleeds. Five time points were collected (30 min, 1 h, 4 h, 8 h, 24 h) into heparinized collection tubes. Protein precipitation was performed and compound extracted in cold acetonitrile and analyzed by MS. Nonwinlin was used for PK modeling as needed.

[3] = Cyp 3A4 midazolam LCMS IC50, human liver microsomes, substrate midazolam
[4] = Cyp 3A4 testosterone LCMS IC50, human liver microsomes, substrate testosterone
[5] = ATCC10231, 24 h, read-out: C. Albicans MIC90 at 24 h
[6] = ATCC10231, 48 h, read-out: C. Albicans MIC90 at 48 h
[7] = 20 mg/kg in 0.5% MC/0.5% TW80 suspension vehicle
[8] = 20 mg/kg in 45% cyclodextrin with water

Cyp3A4, sequence (P08684 whole entry): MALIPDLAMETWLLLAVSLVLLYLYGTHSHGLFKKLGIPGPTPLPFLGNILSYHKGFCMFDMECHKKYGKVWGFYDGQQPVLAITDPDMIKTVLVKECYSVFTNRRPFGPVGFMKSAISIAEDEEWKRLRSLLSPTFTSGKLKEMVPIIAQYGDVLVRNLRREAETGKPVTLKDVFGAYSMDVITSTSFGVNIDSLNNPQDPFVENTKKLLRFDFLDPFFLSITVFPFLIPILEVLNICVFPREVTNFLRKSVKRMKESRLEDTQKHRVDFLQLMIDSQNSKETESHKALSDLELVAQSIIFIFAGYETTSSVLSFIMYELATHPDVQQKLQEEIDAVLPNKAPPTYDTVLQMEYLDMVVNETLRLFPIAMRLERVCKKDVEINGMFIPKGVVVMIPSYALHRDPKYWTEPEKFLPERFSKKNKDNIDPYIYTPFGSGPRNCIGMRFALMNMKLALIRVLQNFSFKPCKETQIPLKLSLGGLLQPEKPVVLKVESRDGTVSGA

Row | SMILES | IC50 (Cyp3A4; [3]) | IC50 (Cyp3A4; [4]) | MIC90 [1, 5] | MIC90 [1, 6] | Cmax [2, 7] | AUC(0-t) [2, 7] | Cmax [2, 8] | AUC(0-t) [2, 8]
1 | CCC(C)n1ncn(-c2ccc(N3CCN(c4ccc(OC[C@@H]5CO[C@@](Cn6nccn6)(c6ccc(Cl)cc6Cl)O5)cc4)CC3)cc2)c1=O (stereo partly drawn) [Compound 15] | > 50 µM | > 50 µM | > 100 µM | > 100 µM |  |  |  | 
2 | CCC(C)n1ncn(-c2ccc(N3CCN(c4ccc(OC[C@@H]5CO[C@@](Cc6ccnnc6)(c6ccc(Cl)cc6Cl)O5)cc4)CC3)cc2)c1=O (stereo partly drawn) [Compound 22] | > 50 µM | > 50 µM | > 100 µM | > 100 µM | 170 nM | 2.21 µM·h | 1710 nM | 8.08 µM·h
3 | CCC(C)n1ncn(-c2ccc(N3CCN(c4ccc(OC[C@@H]5CO[C@@](Cn6nccn6)(c6ccccc6)O5)cc4)CC3)cc2)c1=O (stereo partly drawn) [Compound 42] | > 50 µM | > 50 µM | > 100 µM | > 100 µM |  |  | 3160 nM | 42.7 µM·h
